“And” between values parts separate entries of the source, which are not always exact repeats. Equal values may be shown once. Toxic doses and inconclusive results are not listed.
Tested on: CD2F1 mice, L1210 leukemia ip, survival T/C
Assay: NCI In Vivo Anticancer Drug Screen. Data for tumor model L1210 Leukemia (intraperitoneal) in CD2F1 (CDF1) mice
Details: higher = longer survival
Outline: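 In this screen, transplantable tumors were grown in mice given either the compound or its vehicle. Results were expressed as the treated measurement relative to the control measurement.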

[1] = endpoint: mean survival time, dose: 100.0 mg/kg/injection, schedule: Q04DX003 (ip), vehicle: saline
[2] = endpoint: mean survival time, dose: 100.0 mg/kg/injection, schedule: Q04DX003 (ip), vehicle: saline with Tween-80
[3] = endpoint: mean survival time, dose: 400.0 mg/kg/injection, schedule: Q04DX003 (ip), vehicle: saline with Tween-80
[4] = endpoint: mean survival time, dose: 200.0 mg/kg/injection, schedule: Q01DX009 (ip), vehicle: saline with Tween-80

CCC(C#N)=C1CCCCC1
T/C (endpoint: mean survival time, dose: 25.0 mg/kg/injection, schedule: Q04DX003 (ip), vehicle: saline): 93 % of control | T/C (endpoint: mean survival time, dose: 50.0 mg/kg/injection, schedule: Q04DX003 (ip), vehicle: saline): 91 % of control | T/C [1]: 91 % of control

CNNCc1ccc(C(=O)NC(C)C)cc1
T/C (endpoint: mean survival time, dose: 3.13 mg/kg/injection, schedule: Q01DX010 (ip), vehicle: saline): 96 % of control | T/C (endpoint: mean survival time, dose: 6.25 mg/kg/injection, schedule: Q01DX010 (ip), vehicle: saline): 106 % of control | T/C (endpoint: mean survival time, dose: 6.25 mg/kg/injection, schedule: Q01DX010 (sc), vehicle: saline): 103 % of control | T/C (endpoint: mean survival time, dose: 12.5 mg/kg/injection, schedule: Q01DX010 (ip), vehicle: saline): 108 % of control | T/C (endpoint: mean survival time, dose: 25.0 mg/kg/injection, schedule: Q01DX010 (oral), vehicle: saline): 120 % of control | T/C (endpoint: mean survival time, dose: 25.0 mg/kg/injection, schedule: Q01DX010 (sc), vehicle: saline): 116 % of control | T/C (endpoint: mean survival time, dose: 29.7 mg/kg/injection, schedule: Q01DX009 (ip), vehicle: saline): 110 % of control | T/C (endpoint: mean survival time, dose: 38.0 mg/kg/injection, schedule: Q03DX004 (ip), vehicle: saline): 100 % of control | T/C (endpoint: mean survival time, dose: 50.0 mg/kg/injection, schedule: Q01DX010 (sc), vehicle: saline): 120 % of control | T/C [1]: 112 % of control | T/C (endpoint: mean survival time, dose: 133.0 mg/kg/injection, schedule: Q01DX009 (ip), vehicle: saline): 159 % of control and 170 % of control | T/C (endpoint: mean survival time, dose: 150.0 mg/kg/injection, schedule: Q03DX004 (ip), vehicle: saline): 108 % of control | T/C (endpoint: mean survival time, dose: 200.0 mg/kg/injection, schedule: Q01DX007 (ip), vehicle: saline): 179 % of control

CC(C)CN(CC(C)C)C(=S)[S-].CC(C)CN(CC(C)C)C(=S)[S-].[Zn]
T/C (endpoint: mean survival time, dose: 75.0 mg/kg/injection, schedule: Q04DX003 (ip), vehicle: saline): 91 % of control | T/C (endpoint: mean survival time, dose: 150.0 mg/kg/injection, schedule: Q04DX003 (ip), vehicle: saline): 89 % of control | T/C (endpoint: mean survival time, dose: 300.0 mg/kg/injection, schedule: Q04DX003 (ip), vehicle: saline): 95 % of control

Clc1ccc(C#Cc2ccc(Cl)cc2)cc1
T/C (endpoint: mean survival time, dose: 75.0 mg/kg/injection, schedule: Q01DX001 (ip), vehicle: other): 103 % of control | T/C [2]: 100 % of control | T/C (endpoint: mean survival time, dose: 150.0 mg/kg/injection, schedule: Q01DX001 (ip), vehicle: other): 94 % of control | T/C (endpoint: mean survival time, dose: 300.0 mg/kg/injection, schedule: Q01DX001 (ip), vehicle: other): 88 % of control | T/C [3]: 87 % of control

Cc1c(N=NN(C)C)cc[n+]([O-])c1C
T/C (endpoint: mean survival time, dose: 11.0 mg/kg/injection, schedule: Q01DX009 (ip), vehicle: water): 121 % of control | T/C (endpoint: mean survival time, dose: 25.0 mg/kg/injection, schedule: Q01DX009 (ip), vehicle: water): 157 % of control | T/C (endpoint: mean survival time, dose: 37.5 mg/kg/injection, schedule: Q01DX009 (ip), vehicle: water): 159 % of control

O=S(=O)(Cc1ccccc1)Cc1ccccc1
T/C (endpoint: mean survival time, dose: 100.0 mg/kg/injection, schedule: Q01DX009 (ip), vehicle: saline with Tween-80): 101 % of control | T/C [2]: 103 % of control | T/C [4]: 98 % of control | T/C (endpoint: mean survival time, dose: 200.0 mg/kg/injection, schedule: Q04DX003 (ip), vehicle: saline with Tween-80): 103 % of control | T/C (endpoint: mean survival time, dose: 400.0 mg/kg/injection, schedule: Q01DX009 (ip), vehicle: saline with Tween-80): 96 % of control | T/C [3]: 102 % of control

CC(=O)NCCSSCCCCS(=O)O
T/C (endpoint: median survival time, dose: 25.0 mg/kg/injection, schedule: Q01DX009 (ip), vehicle: suspension in saline): 93 % of control | T/C (endpoint: median survival time, dose: 50.0 mg/kg/injection, schedule: Q01DX009 (ip), vehicle: suspension in saline): 100 % of control | T/C (endpoint: median survival time, dose: 100.0 mg/kg/injection, schedule: Q01DX009 (ip), vehicle: suspension in saline): 96 % of control | T/C (endpoint: median survival time, dose: 200.0 mg/kg/injection, schedule: Q01DX009 (ip), vehicle: suspension in saline): 100 % of control | T/C (endpoint: median survival time, dose: 400.0 mg/kg/injection, schedule: Q01DX009 (ip), vehicle: suspension in saline): 114 % of control

CCOC(=N)CNC(=O)c1ccccc1
T/C (endpoint: mean survival time, dose: 100.0 mg/kg/injection, schedule: Q04DX002 (ip), vehicle: saline with Tween-80): 105 % of control | T/C (endpoint: mean survival time, dose: 200.0 mg/kg/injection, schedule: Q04DX002 (ip), vehicle: saline with Tween-80): 98 % of control | T/C (endpoint: mean survival time, dose: 400.0 mg/kg/injection, schedule: Q04DX002 (ip), vehicle: saline with Tween-80): 98 % of control

O=C1c2cccc3c2C2(O)c4c1cccc4C(=O)c1cccc(c12)C3=O
T/C (endpoint: mean survival time, dose: 132.0 mg/kg/injection, schedule: Q01DX009 (ip), vehicle: saline with Tween-80): 104 % of control | T/C [4]: 121 % of control

CC(=O)OCC1OC(OC(C)=O)C(On2nnc3c(-c4ccccc4)c(C)nn32)C(OC(C)=O)C1OC(C)=O (configuration not stated)
T/C (endpoint: median survival time, dose: 12.5 mg/kg/injection, schedule: Q01DX005 (ip), vehicle: Klucel (hydroxypropylcellulose) (HPC)): 93 % of control | T/C (endpoint: median survival time, dose: 25.0 mg/kg/injection, schedule: Q01DX005 (ip), vehicle: Klucel (hydroxypropylcellulose) (HPC)): 95 % of control | T/C (endpoint: median survival time, dose: 50.0 mg/kg/injection, schedule: Q01DX005 (ip), vehicle: Klucel (hydroxypropylcellulose) (HPC)): 97 % of control | T/C (endpoint: median survival time, dose: 100.0 mg/kg/injection, schedule: Q01DX005 (ip), vehicle: Klucel (hydroxypropylcellulose) (HPC)): 95 % of control
